In patent publication US4753928A, “Process for obtaining sexual products from mammals suitable for natural or artificial fertilization” (INNOFINANCE Altalanos Innovacios Pengintezet, priority 1985, dated 1988):
Where a SMILES comes first, the peptide text is derived from it. [ ]: non-standard residue; d: D form. pGlu = O=C1CC[C@@H](C(=O)O)N1

Tests used:
[1] = test system: ovary of infant domestic cat; experiment: Stimulating function of ovary in infant domestic cat (D-Phe6,Gln8-GnRH); type: in vivo, Felis cattus domesticus; details: 100 μg i.m. every second day, 4 times; 45 days old kittens
Method: 5 kittens each weighing 0.3 kg and being 45 days old were treated with D-Phe^6, Gln^8 -GnRH analogue every second day, altogether 4 times, using 100 μg each of the active ingredient. It was intramuscularly administered after dilution in normal saline solution. Following treatment, ovaries of both sides were removed from the animals under narcosis and visual examination took place. Thereafter the ovaries were fixed in formalin, and then hystological test was carried out. […] Under incrustation developing follicles were found, well definable from the bright, butter-coloured ovary. Some of the follicles were of Graf-follicle size.

[2] = test system: barren chinchillas; experiment: Treatment of chinchilla barren for prolonged time; type: in vivo
Method: Twenty chinchillas barren for at least two years were treated twice daily for three days with 10 μg each of D-Phe^6, Gln^8 -GnRH analogue through intraperitoneal injection. On the 4th day the animals were injected with 75 μg of GnRH analogue, then they were put together with the male. 12 of the Chinchillas gave birth within 4 months. Parallel with the above treatment, 3 animals barren for more than 2 years having very valuable fur as "black" mutant chinchillas were treated twice daily for three days with 10 μg each of D-Phe^6, Gln^8 -GnRH analogue, administered through peritoneal injection. The animals were injected on the 4th day with 75 μg of GnRH analogue, then, as customary, were put together with the male.

[3] = test system: female lion; type: in vivo
Method: In our process an intact, fertile female lion belonging to a Zoo was treated, a lioness of 200 kg body weight, which has given litter five times in its life already. Treatments took place twice in every 3 weeks, using D-[…], […] -GnRH analogue. Treatment was timed in such a way that a 50 μg dose was follwed by a 500 μg dose, than a 3-week pause followed. Treatment was carried out with the already mentioned three weeks interval from commencement of oestrus (month of April) until 50 days following end of oestrus typical of the species (August).

[4] = test system: potential breeding sows; experiment: Inducing first successful rutting of female piglets in puberty; type: in vivo, pigs; details: treated group of 30
Method: For our tests 60 potential breeding sows were selected from a stock of 200 sows available at the farm, on the basis of best growing vigor and feed conversion determined by industrial technology. These animals were put into 2 random groups of 30 each. Both groups, also according to industrial technology, were kept without food and drink for 24 hours. Animals at time of selection were injected intramuscularly with D-Phe^6, Gln^8 -GnRH analogue diluted in normal saline solution, then injections were repeated with 20 μg doses each from the same analogue twice with 24 hours intervals. The first rutting animal appeared 5 days after selection both in the untreated control group and in the treated group. Both groups were kept in the same sty, air-space, under similar conditions for 26 days as permitted in the industrial farming technology. During this time 3 animals (10%) from the untreated control and 21 animals (70%) from the treated stock rutted successfully. […] In this test series exact timing of ovulation was not amongst aims since only a few boars were available. For this reason, aim of the treatment was "the first successful rutting" within 26 days. 10% of the sows in farrow was a result acceptable to industrial farming average, thus the increase to 70% as a result of treatment means a very significant economic advantage.

[5] = test system: red fox males; experiment: Inducing spermiogenesis of red fox in seasonal oligospermia; type: in vivo, Vulpes vulpes
Source text: We have attempted to induce spermiogenesis of red fox males kept in Zoo and being in seasonal oligospermia with the aim that pure bred silver and blue foxes kept under farming scale conditions might be inseminated for the production of high-quality hybrid furs. […] Between unoestrus of the various sub-species is a difference of several months (red fox: January; blue fox: April and May). Results of the test were compared to population being in seasonal unoestrus where the average quantity of ejaculate was 2 ml, density 3 and motility 50-60%. This was taken as physiological value. During the test 5 sexually mature red fox males of 8 kg average weight were treated in the month of April, twice weekly with 1, 5, 10, and 50 μg doses of D-Phe^6, Gln^8 -GnRH analogue for seven weeks. On the third week following commencement of treatment sperm sample was taken. In the sample sperm count was 70% of the physiological value, and the number of degenerated sperm was over 40%. Most of the deformed forms were of young formation (plasma droplet of neck and middle part). […] (Males were separated from females, thus they had no opportunity to copulate.) Sperm samples were put into groups according to quality, then put into deep freeze. […] By ejaculating the 5 foxes once each, 56 doses of sperms suitable for fertilizing were obtained. In this way industrial technology service was provided for the production of quality furs.

[6] = test system: infant domestic rabbits; experiment: Inducing super-ovulation in infant domestic rabbits; type: in vivo, rabbit; details: 5 μg twice daily 3 days i.p., 50 μg on 4th day, after 26 hours; 42-day old rabbits
Method: 20 42-day old rabbit whelps of the white pearl variety reared under large scale farming conditions were administered twice daily for three days 5 μg of D-Phe^6, Gln^8 -GnRH analogue intraperitoneally. Then the animals were divided into two groups and the one half of them was treated with 50 μg of active ingredient on the 4th day while the other half was killed with vapour of ether before treatment began. Developed follicles of this group were counted and used as control in determining the effect of the 50 μg dose. From the group kept alive, two animals were selected and through laparoscope probing their ovulation process was monitored for 10 hours while the animals were kept under narcosis (abdominal cavity was mirrored).

[7] = test system: female blue fox; experiment: Treatment of female blue fox in seasonal unoestrus for inducing fertile oestrus; type: in vivo
Method: Female blue fox in seasonal unoestrus was examined in December under narcosis with the aid of laparoscopy. […] Then the animal had twice daily intramuscular treatment for ten days with a 1 to 5 μg dose of D-Phe^6, Gln^8 -GnRH analogue. On the tenth day another laparoscopy was carried out under narcosis. […] Also in December a rejected female due to mammalian atrophy was similarly treated twice a day with 2 μg each of D-Phe^6, Gln^8 -GnRH analogue the effect of which was followed by looking at changes in condition of the neck of uterus. On the 6th day following first treatment, the neck of uterus opened. At this time the treatment was carried out with 50 μg of active ingredient. 16 hours later conditions of the ovaries were examined with mirroring and a state immediately prior to ovulation was found. Then abdominal cavity was entirely opened, the ovaries were removed and by puncturing ova were removed from a total of 11 Graf-follicles. Six regular, normal ova covered with corona radiata were found.

With `CC(C)C[C@H](NC(=O)[C@@H](Cc1ccccc1)NC(=O)[C@H](Cc1ccc(O)cc1)NC(=O)[C@H](CO)NC(=O)[C@H](Cc1c[nH]c2ccccc12)NC(=O)[C@H](Cc1c[nH]cn1)NC(=O)[C@@H]1CCC(=O)N1)C(=O)N[C@@H](CCC(N)=O)C(=O)N1CCC[C@H]1C(=O)NCC(N)=O` [D-Phe^6, Gln^8 -GnRH analogue, D-Phe^6, Gln^8 -GnRH] ([pGlu]HWSY[dF]LQPG-NH2) the “corpora haemorrhagica on ovaries of both sides” value [1] was 5-7, the “black mutant chinchillas that gave birth within four months” value ([2]; 3 animals barren >2 years, same treatment) was “all three animals gave birth to young ones” and the “chinchillas that gave birth within 4 months” value ([2]; of twenty barren ≥2 years, 10 μg twice daily 3 days i.p., 75 μg on 4th day) was 12. The “pregnancy during treatment (contraception)” value ([3]; 50 μg followed by 500 μg, every 3 weeks, April to August, regular copulation) was “did not become pregnant”, the “behaviour and appearance during treatment” value ([3]; in vivo) was “showed no irregularity either in its behaviour or in its appearance” and the “animals that rutted successfully within 26 days” value ([4]; three i.m. injections at 24 h intervals, 20 μg) was 21 animals. For the same compound, the “share of animals that rutted successfully within 26 days” value ([4]; untreated control 10%) was 70%, the “doses of sperms suitable for fertilizing obtained” value ([5]; 5 foxes ejaculated once each) was 56 and the density of ejaculate ([5]; 7 weeks) was 3. For the same compound, the sperm motility ([5]; 7 weeks, physiological value 50-60%) was 65%, the motility after remelting ([5]; after dilution and deep freeze at -196° C.) was 45% and the degenerated sperm ([5]; third week) was “over 40%”. The “sperm count relative to the physiological value” ([5]; third week, twice weekly 1, 5, 10 and 50 μg doses) was 70%, the “ovulations and corpora haemorrhagica in each animal” value [6] was 30-40 and the “regular, normal ova covered with corona radiata found” value ([7]; second female) was “Six”. For the same compound, the “day on which the neck of uterus opened” value ([7]; second female, 2 μg twice a day) was 6 days, the Graf-follicles punctured ([7]; second female, 16 hours after 50 μg) was 11 and the “condition of neck of uterus” value ([7]; tenth day, same animal) was “the neck of uterus was open”.
